Data: patent US3974188A, “Process for producing cholestane type steroids” (The Lion Dentifrice Co., Ltd., priority 1974, dated 1976)

Key:
sarcomatous growth = assay: Test for inhibition of sarcomatous growth (Rat cotton pellet method); type: in vivo; conditions: dose 100 mg/kg, 7 rats
Source text: 1. Test for inhibition of sarcomatous growth
(Rat cotton pellet method)*
*Meier, R., Schuler, W. and Desaulees, P. : Experienta, 6, (1950)

vascular diffusion = assay: Test for inhibition of the acceleration of vascular diffusion (inhibition of cutaneous chromoleaching of rat); type: in vivo; conditions: for Inhibition rate (%) / Mean blueing area (mm^2 ± S.E.): rat; for Mean blueing area (mm^2 ± S.E.): none: 200 ± 8.0
Source text: 3. Test for inhibition of the acceleration of vascular diffusion
(Test for inhibition of cutaneous chromoleaching of rat)**
**Juduh, J. D. and Willoughby, D.A.; J. Path. Buct., 83, 567 (1962)

[1] = Antiinflammatory effect (overall statement); conditions: in vivo
Acute toxicity, LD50 = type: in vivo; conditions: mouse, in vivo, mouse male, 5 weeks
Source text: (§1) |LD50 (mouse male, 5 weeks)

mouse = assay: Acute toxicity, LD50; type: in vivo; conditions: mouse male, 5 weeks; intraperitoneal
Source text: as §1

SMILES	Inhibition rate (%) (sarcomatous growth)	Inhibition rate (%) (vascular diffusion; 50 mg/kg P.C.)	Mean blueing area (mm^2 ± S.E.) (vascular diffusion; 50 mg/kg P.C.)	Inhibition rate (%) (vascular diffusion; 100 mg/kg P.C.)	Mean blueing area (mm^2 ± S.E.) (vascular diffusion; 100 mg/kg P.C.)	antiinflammatory effect (in words) [1]	LD50 (Acute toxicity, LD50; ip, intraperitoneal)	LD50 (Acute toxicity, LD50; po)	LD50 (mouse)	acceleration of vascular diffusion (in words) (vascular diffusion; 100 mg/kg)
CC(C)CCC[C@@H](C)[C@H]1CC[C@H]2[C@@H]3CC[C@H]4C[C@@H](O)CC[C@]4(C)[C@H]3CC[C@]12C [C, cholestanol]	4.5%	4.5%	191 ± 5 mm^2	6%	188 ± 3 mm^2					
CC(C)CCC[C@@H](C)[C@H]1CC[C@H]2[C@@H]3CC[C@H]4C[C@@H](OP(=O)(O)O)CC[C@]4(C)[C@H]3CC[C@]12C [K2 --PEC, dipotassium cholestanyl phosphate]	10.0%									
CC(C)CCC[C@@H](C)[C@H]1CC[C@H]2[C@@H]3CC[C@H]4C[C@H](OP(=O)(O)O)CC[C@]4(C)[C@H]3CC[C@]12C [dipotassium epicholestanyl phosphate]	21.5%	18%	164 ± 4 mm^2	21%	158 ± 6 mm^2	remarkably effective as an antiinflammatory agent	1580 mg/kg	9300 mg/kg		
CC(C)CCC[C@@H](C)[C@H]1CC[C@H]2[C@@H]3CC[C@H]4C[C@H](O)CC[C@]4(C)[C@H]3CC[C@]12C [EC, epicholestanol]	6.9%	4.5%	191 ± 9 mm^2	10%	180 ± 4 mm^2					
CC(C)CCC[C@@H](C)[C@H]1CC[C@H]2[C@@H]3CC[C@H]4C[C@H](OP(=O)(O)O)CC[C@]4(C)[C@H]3CC[C@]12C [epicholestanyl phosphate]									1850 mg/kg	inhibited
